Results reported in patent publication US20230257372A1 (CHONG KUN DANG PHARMACEUTICAL CORP., priority 2020, published 2023).
Read-outs that look alike come from different tables or passages of the source.

What was measured:
human recombinant HDAC6 = target: T1, human recombinant HDAC6 (Homo sapiens, UniProt Q9UBN7); test: HDAC6 enzyme activity inhibition (HDAC Fluorimetric Drug Discovery Kit); assay type: biochemical
T1 construct: purchased Calbiochem Inc. 382180
T1 sequence (Q9UBN7 1-1215): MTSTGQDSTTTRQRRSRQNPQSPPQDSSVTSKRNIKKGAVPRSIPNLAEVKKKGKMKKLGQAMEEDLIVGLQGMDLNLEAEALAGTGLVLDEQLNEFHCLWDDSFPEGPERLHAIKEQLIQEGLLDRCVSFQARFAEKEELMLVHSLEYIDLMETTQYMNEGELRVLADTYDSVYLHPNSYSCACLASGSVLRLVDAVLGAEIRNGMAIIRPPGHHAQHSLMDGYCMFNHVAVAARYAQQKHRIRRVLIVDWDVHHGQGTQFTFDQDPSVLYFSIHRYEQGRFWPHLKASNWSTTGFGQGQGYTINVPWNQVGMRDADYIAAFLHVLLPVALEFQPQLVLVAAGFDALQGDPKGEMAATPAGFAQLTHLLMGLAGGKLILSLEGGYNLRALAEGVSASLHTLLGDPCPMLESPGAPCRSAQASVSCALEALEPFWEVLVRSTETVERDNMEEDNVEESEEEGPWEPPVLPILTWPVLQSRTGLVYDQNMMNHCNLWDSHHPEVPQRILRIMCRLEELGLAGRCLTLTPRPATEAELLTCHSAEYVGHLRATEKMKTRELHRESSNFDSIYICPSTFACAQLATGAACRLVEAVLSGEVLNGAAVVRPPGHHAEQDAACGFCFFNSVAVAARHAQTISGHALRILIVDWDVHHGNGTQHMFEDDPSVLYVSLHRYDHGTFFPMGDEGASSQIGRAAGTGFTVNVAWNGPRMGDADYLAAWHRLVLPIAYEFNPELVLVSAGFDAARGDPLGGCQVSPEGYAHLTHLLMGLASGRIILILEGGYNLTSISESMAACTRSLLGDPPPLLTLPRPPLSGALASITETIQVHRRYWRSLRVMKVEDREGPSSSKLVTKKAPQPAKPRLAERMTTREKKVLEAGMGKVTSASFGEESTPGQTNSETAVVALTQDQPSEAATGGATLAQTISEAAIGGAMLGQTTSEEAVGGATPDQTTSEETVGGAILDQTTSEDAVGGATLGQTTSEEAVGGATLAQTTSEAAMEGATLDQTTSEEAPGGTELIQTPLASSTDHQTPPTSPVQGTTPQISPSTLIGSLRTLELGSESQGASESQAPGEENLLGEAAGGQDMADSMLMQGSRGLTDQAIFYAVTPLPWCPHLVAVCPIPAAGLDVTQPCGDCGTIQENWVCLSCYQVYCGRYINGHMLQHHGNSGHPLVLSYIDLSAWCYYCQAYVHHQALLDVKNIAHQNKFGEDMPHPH
Method in brief: (§1)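 Five-fold compound dilutions incubated with […] recombinant enzyme and 10 μM fluorogenic Fluor de Lys substrate, 60 min at 30° C. Fluor de Lys Developer II then added for 30 min to generate the fluorescent read-out.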

human recombinant HDAC1 = target: T2, human recombinant HDAC1 (Homo sapiens, UniProt Q13547); test: HDAC1 enzyme activity inhibition (HDAC Fluorimetric Drug Discovery Kit); assay type: biochemical; settings: read-out: HDAC1
T2 construct: purchased Enzo Life Science, Inc. BML-SE456
Method in brief: as §1

[1] = human recombinant HDAC6, same protocol as HDAC1
[2] = human recombinant HDAC1, Fluor de Lys substrate, 30° C. 60 minutes
[3] = human recombinant HDAC6, IC50 calculated with GraphPad Prism
[4] = human recombinant HDAC1, IC50 calculated with GraphPad Prism

T2 sequence (Q13547 whole entry): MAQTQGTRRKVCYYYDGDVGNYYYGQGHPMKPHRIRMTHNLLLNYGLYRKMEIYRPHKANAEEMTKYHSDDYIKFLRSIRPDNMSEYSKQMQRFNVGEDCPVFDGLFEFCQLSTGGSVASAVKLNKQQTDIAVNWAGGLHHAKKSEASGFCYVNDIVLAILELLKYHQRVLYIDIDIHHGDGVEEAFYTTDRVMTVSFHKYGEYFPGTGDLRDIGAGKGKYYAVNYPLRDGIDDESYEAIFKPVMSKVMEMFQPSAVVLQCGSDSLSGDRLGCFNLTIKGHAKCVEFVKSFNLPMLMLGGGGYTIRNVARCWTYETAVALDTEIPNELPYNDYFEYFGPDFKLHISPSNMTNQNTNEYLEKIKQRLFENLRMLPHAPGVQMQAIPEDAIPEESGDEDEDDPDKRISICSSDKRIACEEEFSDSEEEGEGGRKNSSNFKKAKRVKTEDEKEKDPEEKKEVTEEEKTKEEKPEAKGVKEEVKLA

| HDAC6 selectivity (fold) (human recombinant HDAC6; HDAC6 over HDAC1) | IC50 (human recombinant HDAC6; [1]) [nM] | IC50 (human recombinant HDAC1; [2]) [nM] | HDAC6 selectivity (fold) (human recombinant HDAC6; HDAC1 IC50 / HDAC6 IC50) | IC50 (human recombinant HDAC6; [3]) [nM] | IC50 (human recombinant HDAC1; [4]) [nM] | Compound |
| --- | --- | --- | --- | --- | --- | --- |
| 784 | 63.7 | > 50000 | – | – | – | CC1CCN(Cc2ccc(-c3cn(Cc4ccc(-c5nnc(C(F)F)o5)cc4F)nn3)cn2)CC1 [Compound 18177, 2-(difluoromethyl)-5-(3-fluoro-4-((4-(6-((4-methylpiperidin-1-yl)methyl)pyridin-3-yl)-1H-1,2,3-triazol-1-yl)methyl)phenyl)-1,3,4-oxadiazole] |
| 1908 | 26.2 | > 50000 | – | – | – | Fc1cc(-c2nnc(C(F)F)o2)ccc1Cn1cc(-c2cccc(N3CCN(C4COC4)CC3)c2F)nn1 [Compound 4580] |
| – | – | – | 1193 | 41.9 | > 50000 | CN(C)C(C)(C)C(=O)Nc1cccc(-c2cn(Cc3ccc(-c4nnc(C(F)F)o4)cc3)nn2)c1 [Compound 4351, N-(3-(1-(4-(5-(difluoromethyl)-1,3,4-oxadiazol-2-yl)benzyl)-1H-1,2,3-triazol-4-yl)phenyl)-2-(dimethylamino)-2-methylpropanamide] |
| 776 | 64.4 | > 50000 | – | – | – | FC(F)c1nnc(-c2ccc(Cn3cc(-c4ccc5c(c4)CNC5)nn3)nc2)o1 [Compound 4539, 2-(difluoromethyl)-5-(6-((4-(isoindolin-5-yl)-1H-1,2,3-triazol-1-yl)methyl)pyridin-3-yl)-1,3,4-oxadiazole] |
| – | – | – | 1094 | 45.7 | > 50000 | Fc1cc(-c2nnc(C(F)F)o2)ccc1Cn1cc(-c2cccc(N3CCN(C4CCC4)CC3)c2)nn1 [Compound 4376, 2-(4-((4-(3-(4-cyclobutylpiperazin-1-yl)phenyl)-1H-1,2,3-triazol-1-yl)methyl)-3-fluorophenyl)-5-(difluoromethyl)-1,3,4-oxadiazole] |
| 809 | 61.8 | > 50000 | – | – | – | Cc1cnc(-c2cn(Cc3ccc(-c4nnc(C(F)F)o4)cc3F)nn2)s1 [Compound 17857, 2-(difluoromethyl)-5-(3-fluoro-4-((4-(5-methylthiazol-2-yl)-1H-1,2,3-triazol-1-yl)methyl)phenyl)-1,3,4-oxadiazole] |
| – | – | – | 241 | 207 | > 50000 | CC(=O)N1CCC(c2cn(Cc3ccc(-c4nnc(C(F)F)o4)cn3)nn2)CC1 [Compound 3811, 1-(4-(1-((5-(5-(difluoromethyl)-1,3,4-oxadiazol-2-yl)pyridin-2-yl)methyl)-1H-1,2,3-triazol-4-yl)piperidin-1-yl)ethan-1-one] |
| – | – | – | 877 | 57 | > 50000 | CN1CCN(c2ccccc2-c2cn(Cc3ccc(-c4nnc(C(F)F)o4)cn3)nn2)CC1 [Compound 4106, 2-(difluoromethyl)-5-(6-((4-(2-(4-methylpiperazin-1-yl)phenyl)-1H-1,2,3-triazol-1-yl)methyl)pyridin-3-yl)-1,3,4-oxadiazole] |
| – | – | – | 3846 | 13 | > 50000 | FC(F)(F)c1nnc(-c2ccc(Cn3nnc(-c4cccs4)n3)nc2)o1 [Compound 4233] |
| 2083 | 24 | > 50000 | – | – | – | CN1CCN(Cc2ccc(-c3cn(Cc4ccc(-c5nnc(C(F)F)o5)cn4)nn3)cc2)CC1 [Compound 4562, 2-(difluoromethyl)-5-(6-((4-(4-((4-methylpiperazin-1-yl)methyl)phenyl)-1H-1,2,3-triazol-1-yl)methyl)pyridin-3-yl)-1,3,4-oxadiazole] |
| – | – | – | 370 | 13.5 | > 50000 | Fc1cc(-c2nnc(C(F)F)o2)ccc1Cn1cc(-c2ccc(CNC3CCC3)cc2)nn1 [Compound 4468, N-(4-(1-(4-(5-(difluoromethyl)-1,3,4-oxadiazol-2-yl)-2-fluorobenzyl)-1H-1,2,3-triazol-4-yl)benzyl)cyclobutanamine] |
| – | – | – | 527 | 94.8 | > 50000 | FC(F)c1nnc(-c2ccc(Cn3cc(-c4ccccc4)nn3)cc2)o1 [Compound 3657, 2-(difluoromethyl)-5-(4-((4-phenyl-1H-1,2,3-triazol-1-yl)methyl)phenyl)-1,3,4-oxadiazole] |
| 572 | 87.4 | > 50000 | – | – | – | Fc1cc(-c2nnc(C(F)F)o2)ccc1Cn1cc(-c2ccc3c(c2)CN(CC2(F)CC2)C3)nn1 [Compound 17460, 2-(difluoromethyl)-5-(3-fluoro-4-((4-(2-((1-fluorocyclopropyl)methyl)isoindolin-5-yl)-1H-1,2,3-triazol-1-yl)methyl)phenyl)-1,3,4-oxadiazole] |
| – | – | – | 1742 | 28.7 | > 50000 | CN(C)CCC(=O)Nc1cccc(-c2cn(Cc3ccc(-c4nnc(C(F)F)o4)cn3)nn2)c1 [Compound 4229, N-(3-(1-((5-(5-(difluoromethyl)-1,3,4-oxadiazol-2-yl)pyridin-2-yl)methyl)-1H-1,2,3-triazol-4-yl)phenyl)-3-(dimethylamino)propanamide] |
| – | – | – | 920 | 54.3 | > 50000 | O=C(c1cccc(-c2cn(Cc3ccc(-c4nnc(C(F)F)o4)cn3)nn2)c1)N1CCOCC1 [Compound 3885, (3-(1-((5-(5-(difluoromethyl)-1,3,4-oxadiazol-2-yl)pyridin-2-yl)methyl)-1H-1,2,3-triazol-4-yl)phenyl)(morpholino)methanone] |
| – | – | – | 1094 | 45.7 | > 50000 | FC(F)c1nnc(-c2ccc(Cn3cc(-c4ccc5c(c4)CCN(C4CCC4)C5)nn3)nc2)o1 [Compound 4054, 2-(6-((4-(2-cyclobutyl-1,2,3,4-tetrahydroisoquinolin-6-yl)-1H-1,2,3-triazol-1-yl)methyl)pyridin-3-yl)-5-(difluoromethyl)-1,3,4-oxadiazole] |
| 868 | 57.6 | > 50000 | – | – | – | Fc1cc(-c2nnc(C(F)F)o2)cnc1Cn1cc(-c2ccc(CN3CCCC3)cc2Cl)nn1 [Compound 19100, 2-(6-((4-(2-chloro-4-(pyrrolidin-1-ylmethyl)phenyl)-1H-1,2,3-triazol-1-yl)methyl)-5-fluoropyridin-3-yl)-5-(difluoromethyl)-1,3,4-oxadiazole] |
| 211 | 236 | > 50000 | – | – | – | CC1CCN(Cc2cc(Cl)cc(-c3cn(Cc4ncc(-c5nnc(C(F)F)o5)cc4F)nn3)c2)CC1 [Compound 19093, 2-(6-((4-(3-chloro-5-((4-methylpiperidin-1-yl)methyl)phenyl)-1H-1,2,3-triazol-1-yl)methyl)-5-fluoropyridin-3-yl)-5-(difluoromethyl)-1,3,4-oxadiazole] |
| 934 | 53.5 | > 50000 | – | – | – | CN(C)Cc1ccc(-c2cn(Cc3ncc(-c4nnc(C(F)F)o4)cc3F)nn2)s1 [Compound 18311, 1-(5-(1-((5-(5-(difluoromethyl)-1,3,4-oxadiazol-2-yl)-3-fluoropyridin-2-yl)methyl)-1H-1,2,3-triazol-4-yl)thiophen-2-yl)-N,N-dimethylmethanamine] |
| – | – | – | 766 | 65.2 | > 50000 | Fc1cc(-c2nnc(C(F)F)o2)ccc1Cn1cc(-c2ccc(F)c(N3CCNCC3)c2)nn1 [Compound 4397, 2-(difluoromethyl)-5-(3-fluoro-4-((4-(4-fluoro-3-(piperazin-1-yl)phenyl)-1H-1,2,3-triazol-1-yl)methyl)phenyl)-1,3,4-oxadiazole] |
| 546 | 91.5 | > 50000 | – | – | – | Fc1cc(-c2nnc(C(F)F)o2)ccc1Cn1cc(-c2ccc(Cl)nc2)nn1 [Compound 16781, 2-(4-((4-(6-chloropyridin-3-yl)-1H-1,2,3-triazol-1-yl)methyl)-3-fluorophenyl)-5-(difluoromethyl)-1,3,4-oxadiazole] |
